From paper PMC9611598, “Cyclodextrin Derivatives as Promising Solubilizers to Enhance the Biological Activity of Rosmarinic Acid” (Pharmaceutics, 2022)
Converted amounts (≈) assume the structure as drawn.

What was measured:
tyrosinase = target: T1, tyrosinase; assay: L-DOPA oxidation, […] nm; assay type: biochemical; details: 2.0 mM L-DOPA stock, phosphate buffer pH 6.8, room temperature; RA in 50% DMSO, 0.05-2.5 mg/mL test solutions, 25 µL per well; value may refer to prepared solution, not final well concentration
T1 construct: gene PPO3; mushroom tyrosinase is a guess from usual assay practice

[1] = target: AChE (acetylcholinesterase); assay: Ellman assay, […] nm; assay type: biochemical; details: acetylthiocholine iodide, DTNB, Tris-HCl pH 8.0, room temperature; RA in DMSO, 2.5-25 mg/mL test solutions, 20 µL per well; value may refer to prepared solution, not final well concentration

In the case of `O=C(/C=C/c1ccc(O)c(O)c1)O[C@H](Cc1ccc(O)c(O)c1)C(=O)O` [RA, rosmarinic acid], the IC50 (tyrosinase) was 1591 ± 77 µg/mL (≈ 4.42 mM) and the IC50 [1] was 8983 ± 162 µg/mL (≈ 24.9 mM).
